Measured values taken from US9527859B2, “Amidopyridine derivative and use thereof” (Mitsubishi Tanabe Pharma Corporation, priority 2012, dated 2016).

Key:
HepG2 cells = test: Evaluation of hepatocyte cytotoxicity using HepG2 cells (CellTiter-Glo); type: cell-based, human; conditions: for Survival rate (%): cell survival rate
Protocol: Evaluation of Hepatocyte Cytotoxicity Using HepG2 Cells
A culture solution was prepared by adding 10% Fetal Bovine Serum (FBS: treated to be inactivated under the condition of 56° C., 30 minutes, Invitrogen, 10082-147), 0.1 mM Non-Essential Amino Acids (NEAA: Invitrogen, 11140-050), 1 mM sodium pyruvate (PyNa: Invitrogen, 11360-070) to Eagle's MEM medium (Invitrogen, 11875-093) and was used after warming to 37° C. before using.
HepG2 cell line (DS Pharma Biomedical) derived from human hepatoma in logarithmic growth phase were used. The number of cells subjected to subculturing was 1 to 5×10^6 cell/15 mL in a 75 cm^2 cultivation flask, and cells were subcultured about every 1 week depending on the condition of cells. In subculturing, cells were rinsed with D-PBS (−) (invitrogen, 14190-144) (10 mL), then thereto was added 0.25% Trypsin-1 mM EDTA (Invitrogen, 25200-056) (1 mL), and the mixture was treated for 10 minutes (37° C., 5% CO2), then thereto was added culture solution (9 mL), and the mixture was collected and centrifuged (1000 rpm×5 minutes, 4° C.). The number of cells were counted by dyeing with 0.4% trypan blue solution (Invitrogen, 15250-061), and then cells were diluted with culture solution to be a specific number of cells and incubated under the condition of 37° C., 5% CO2.
As to a cell seeding, HepG2 cells which were incubated in a 75 cm^2 flask were rinsed with D-PBS (−) (10 mL), and then thereto was added 0.25% Trypsin-1 mM EDTA (1 mL), and the mixture was treated for 10 minutes (37° C., 5% CO2). Thereto was added additional culture solution (9 mL), and the mixture was collected in a 50 mL centrifuge tube to be centrifuged (1000 rpm×5 minutes, 4° C.). A supernatant was removed, and the residual cells were suspended by additional culture solution and sufficiently single-celled by pipetting. After dyeing with 0.4% trypan blue, the number of cells were counted by using a cell counting chamber, and a suspended cell was prepared in a specified cell density (In case of 24-hour exposure: 1×10^5, in case of 48-hour exposure: 5×10^4 cells/mL). The 100 μL of cell suspension was added per 1 well (n=3, 24 hours: 1×10^4, 48 hours: 5×10^3 cells/100 μL/well) of 96 well Clear bottom black microplate (Corning, 3603), and then the mixture was pre-incubated for about 24 hours under the condition of 37° C., 5% CO2.
Stock solutions of test compounds were prepared in a 200-fold concentration of the desired maximum concentration to be homogenized with optional ultrasonication. These stock solutions were preserved at −20° C. Before using, a stock solution was thawed, and diluted with DMSO to be concentrations of 20 mM to 20 μM (common ratio of 3, 7 concentrations in total), and then it was diluted with culture solution in 100-fold to prepare a culture solution containing test compounds in a 2-fold concentration. Thus, the upper limit of the final concentration of DMSO in culture solution was in principle 0.5% (v/v).
A vehicle control group and a positive control group were set with each measurement plate. Chlorpromazine (Wako Pure Chemical Industries, Ltd., 033-10581) was used as a positive control agent (final concentration 24 hours: 20 μM, 48 hours: 15 μM). 20 mM stock solution was thawed, and then diluted with culture solution, and chlorpromazine-containing culture solution was prepared in 2-fold concentration.
As to the treatment of test compounds, a culture solution (100 μL) containing a test compound or a positive control agent and a culture solution (100 μL) containing vehicle were added to each specified well. A culture solution (200 μL) was added to blank (without cells) well. Thus, total amounts of culture solution of each well were 200 μL, and the final concentration of test compounds was 100 μM to 0.1 μM (common ratio of 3, 7 concentrations in total).
Incubation was carried out under the condition of 37° C., 5% CO2 for 24 or 48 hours. […]

[1] = system: type II collagen-induced arthritis in DBA/1J mice; test: Effect on type II collagen-induced arthritis in DBA/1J mice; type: in vivo, mouse; conditions: oral, once a day for three weeks from booster immunization; significant inhibitory effect on arthritis
Protocol: Effect on Type II Collagen-Induced Arthritis in DBA/1J Mice
An emulsion was prepared by mixing 200 μg of bovine type II collagen (purchased from collagen Gijyutsu Kenshuukai) with Freund's complete adjuvant (Sigma-Aldrich) containing killed Mycobacterium tuberculosis H37Ra, and arthritis was induced by immunization through subcutaneous administration of the emulsion to the tail of 6 to 7 week-old male DBA/1J mouse (Charles River Japan, Inc.), followed by booster immunization three weeks after the first immunization by administration of the same amounts of the emulsion prepared in a similar way. Test compound was suspended or dissolved in 0.5% carboxymethylcellulose (Sigma-Aldrich) and repeatedly administered orally once a day at a dose of 1 to 10 mg/kg body weight using an oral sonde for three weeks from the day of booster immunization. In this model, the symptom of arthritis of the limbs was each evaluated according to the following evaluation criteria of 0 to 4 scores: […], No change; 1, edema in only one joint; 2, edema in two or more joints, or mild edema of the entire limb; 3, severe edema of the entire limb; 4, severe edema of the entire limb and ankylosis and immovability of joint. The score of arthritis of each mouse was expressed as the total of the scores of the limbs (Maximum: 16 points). On the next day of the final administration, soft X-ray photograph of the limbs was taken with soft X-ray equipment (Omic), and the level of joint destruction was evaluated by observation under a microscope. In each finger of the limbs the score of joint destruction in each mouse was judged in the total of scores for each finger of limbs (Maximum: 20) as 0 when no joint destruction was found, and as 1 when one or more destruction was found. The arthritis score and joint destruction score were expressed as the average value and standard error for each group (n=6 to 9). Only a vehicle was administered in a control group, and statistical analysis was performed by Dunnett's multiple comparison test, in which the case was judged as significant when the p value was less than 0.05.

Compound: Cc1c(C(=O)Nc2cnc(N3CCC(O)CC3)c(C#N)c2)cnn1-c1ccc(Cl)cc1 [Example 44, 1-(4-chlorophenyl)-N-[5-cyano-6-(4-hydroxypiperidin-1-yl)pyridin-3-yl]-5-methyl-1H-pyrazole-4-carboxamide]
- Survival rate (%) (HepG2 cells): 95.8%
- Effective Dose (showing arthritis-inhibiting activity) [1]: 3 mg/kg

Compound: Cc1c(C(=O)Nc2cnc(N3CCC(O)CC3)c(C#N)c2)cnn1-c1ccc(C(F)(F)F)cc1 [Example 45, N-[5-cyano-6-(4-hydroxypiperidin-1-yl)pyridin-3-yl]-5-methyl-1-[4-(trifluoromethyl)phenyl]-1H-pyrazole-4-carboxamide]
- Survival rate (%) (HepG2 cells): 92.5%
- Effective Dose (showing arthritis-inhibiting activity) [1]: 10 mg/kg

Compound: Cc1c(C(=O)Nc2cnc(N3CCC(O)CC3)c(C3CC3)c2)cnn1-c1ccc(Cl)cc1 [Example 39, 1-(4-chlorophenyl)-N-[5-cyclopropyl-6-(4-hydroxypiperidin-1-yl)pyridin-3-yl]-5-methyl-1H-pyrazole-4-carboxamide]
- Cell survival rate (HepG2 cells): 65.8%
- Survival rate (%) (HepG2 cells): 107.1%
- Effective Dose (showing arthritis-inhibiting activity) [1]: 3 mg/kg

Compound: Cc1cc(NC(=O)c2cnn(-c3ccc(C(F)(F)F)cn3)c2C)cnc1N1CCC(C(C)(C)F)CC1 [Example 49, N-{6-[4-(1-fluoro-1-methylethyl)piperidin-1-yl]-5-methylpyridin-3-yl}-5-methyl-1-[5-(trifluoromethyl)pyridin-2-yl]-1H-pyrazole-4-carboxamide]
- Survival rate (%) (HepG2 cells): 102.3%

Compound: Cc1cc(NC(=O)c2cnn(-c3ccc(Cl)cc3)c2C)cnc1N1CCC(O)CC1 [Example 43, 1-(4-chlorophenyl)-N-[6-(4-hydroxypiperidin-1-yl)-5-methylpyridin-3-yl]-5-methyl-1H-pyrazole-4-carboxamide]
- Survival rate (%) (HepG2 cells): 117.8%

Compound: Cc1cc(NC(=O)c2cnn(-c3ccc(C(F)(F)F)cc3)c2C)cnc1N1CCC(C(C)(C)F)CC1 [Example 47, N-{6-[4-(1-fluoro-1-methylethyl)piperidin-1-yl]-5-methylpyridin-3-yl}-5-methyl-1-[4-(trifluoromethyl)phenyl]-1H-pyrazole-4-carboxamide]
- Survival rate (%) (HepG2 cells): 99.8%
